According to ChEMBL document CHEMBL5653612, “Catalytic site remodelling of the DOT1L methyltransferase by selective inhibitors” (Nat Commun, 2012):
Activity calls are given as the source filed them. The calls are words filed in the database; no cut-off is given here.

Tests used:
MV4-11 = test: Downregulation of H3K79me2 in human MV4-11 cells habouring MLL/AF4 fusion protein measured upto 48 hrs by immuno blot analysis; format: functional, cell-based
[1] = Apparent permeability across basolateral to apical side in human Caco-2 cells at 10 uM incubated for 90 mins at pH 7.4 by LC/MS analysis; format: ADME, cell-based; settings: Caco-2, pH 7.4
[2] = Apparent permeability across apical to basolateral side in human Caco-2 cells at 10 uM incubated for 90 mins at pH 7.4 by LC/MS analysis; format: ADME, cell-based; settings: Caco-2, pH 7.4
[3] = target: T1, Histone-lysine N-methyltransferase, H3 lysine-79 specific (Homo sapiens, UniProt Q8TEK3); test: Inhibition of recombinant N-terminal DOT1L (1 to 420 residues) (unknown origin) expressed in Escherichia coli (DE3) using [3H]-SAM as substrate preincubated for 30 mins followed by substrate addition and measured after 2 hrs by Topcount reader analysis; settings: read-out: IC50
[4] = target: T1, Histone-lysine N-methyltransferase, H3 lysine-79 specific; test: Binding affinity to recombinant N-terminal DOT1L (1 to 420 residues) (unknown origin) expressed in Escherichia coli (DE3) assessed as dissociation constant by surface plasmon resonance assay
[5] = target: T1, Histone-lysine N-methyltransferase, H3 lysine-79 specific; test: Binding affinity to recombinant N-terminal DOT1L (1 to 420 residues) (unknown origin) expressed in Escherichia coli (DE3) assessed as dissociation constant by SPR analysis

T1 sequence (Q8TEK3 whole entry, the tested form may be a part): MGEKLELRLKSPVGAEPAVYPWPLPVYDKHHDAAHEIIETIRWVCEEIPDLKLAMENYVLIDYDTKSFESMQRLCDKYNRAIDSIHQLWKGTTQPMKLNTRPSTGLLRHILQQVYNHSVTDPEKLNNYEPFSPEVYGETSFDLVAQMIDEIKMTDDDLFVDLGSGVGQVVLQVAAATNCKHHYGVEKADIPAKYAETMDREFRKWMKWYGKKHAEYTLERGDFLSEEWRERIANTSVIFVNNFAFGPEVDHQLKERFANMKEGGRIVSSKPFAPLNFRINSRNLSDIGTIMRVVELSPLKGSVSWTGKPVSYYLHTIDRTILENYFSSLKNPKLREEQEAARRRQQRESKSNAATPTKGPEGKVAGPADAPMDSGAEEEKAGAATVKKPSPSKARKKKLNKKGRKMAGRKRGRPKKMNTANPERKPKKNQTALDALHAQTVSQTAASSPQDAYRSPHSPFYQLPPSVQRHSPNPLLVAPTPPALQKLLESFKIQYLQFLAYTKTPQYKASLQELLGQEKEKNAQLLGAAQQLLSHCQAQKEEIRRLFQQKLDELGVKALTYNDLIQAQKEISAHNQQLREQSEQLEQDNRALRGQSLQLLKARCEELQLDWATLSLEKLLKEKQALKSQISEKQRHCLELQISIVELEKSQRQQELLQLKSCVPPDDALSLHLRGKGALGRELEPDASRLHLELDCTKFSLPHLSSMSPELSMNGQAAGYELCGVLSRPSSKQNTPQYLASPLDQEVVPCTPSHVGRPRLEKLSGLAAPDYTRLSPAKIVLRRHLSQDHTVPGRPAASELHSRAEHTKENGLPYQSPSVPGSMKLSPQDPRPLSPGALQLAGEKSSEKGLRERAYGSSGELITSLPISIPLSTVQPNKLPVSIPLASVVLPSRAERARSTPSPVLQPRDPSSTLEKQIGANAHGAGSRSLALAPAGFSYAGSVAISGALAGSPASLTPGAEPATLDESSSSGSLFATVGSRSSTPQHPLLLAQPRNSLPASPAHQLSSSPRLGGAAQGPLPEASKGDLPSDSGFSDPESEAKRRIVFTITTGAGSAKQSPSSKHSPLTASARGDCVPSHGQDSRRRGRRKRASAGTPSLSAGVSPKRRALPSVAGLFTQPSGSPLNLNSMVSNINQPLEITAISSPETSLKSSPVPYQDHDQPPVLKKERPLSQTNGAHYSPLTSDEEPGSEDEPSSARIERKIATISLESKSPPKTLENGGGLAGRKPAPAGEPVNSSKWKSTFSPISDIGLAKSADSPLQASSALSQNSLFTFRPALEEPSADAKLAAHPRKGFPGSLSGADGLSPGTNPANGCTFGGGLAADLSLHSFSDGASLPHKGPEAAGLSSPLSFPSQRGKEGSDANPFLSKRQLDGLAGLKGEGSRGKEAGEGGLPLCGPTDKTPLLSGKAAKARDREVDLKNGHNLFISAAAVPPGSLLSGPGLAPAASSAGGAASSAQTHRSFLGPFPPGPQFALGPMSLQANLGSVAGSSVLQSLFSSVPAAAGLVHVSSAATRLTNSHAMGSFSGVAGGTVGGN

IC50 [3] [nM]	Kd [4] [nM]	Kd [5] [nM]	Compound	Activity (MV4-11)	Papp B→A at 1.5 h, 10 µM [1] [×10⁻⁶ cm/s]	Papp A→B at 1.5 h, 10 µM [2] [×10⁻⁶ cm/s]
			CC(C)N(CCCNC(=O)Nc1ccc(C(C)(C)C)cc1)C[C@H]1O[C@@H](n2cnc3c(N)ncnc32)[C@H](O)[C@@H]1O	Active		
			COCCc1ccc(OCC(O)CNC(C)C)cc1 (centres undefined) [METOPROLOL]		31.1	68.2
			C[C@H]1O[C@@H](O[C@H]2[C@@H](O)C[C@H](O[C@H]3[C@@H](O)C[C@H](O[C@H]4CC[C@@]5(C)[C@H](CC[C@@H]6[C@@H]5C[C@@H](O)[C@]5(C)[C@@H](C7=CC(=O)OC7)CC[C@]65O)C4)O[C@@H]3C)O[C@@H]2C)C[C@H](O)[C@@H]1O [DIGOXIN]		13.2	0.4
3.6	3.35	3.35	CC(C)(C)c1ccc(NC(=O)NCCCNC[C@H]2O[C@@H](n3cc(Br)c4c(N)ncnc43)[C@H](O)[C@@H]2O)cc1	Active		
